Among the test systems are CCRF-CEM leukemia; NCI-H23 lung; PC-3 prostate; HT29 colon; LOX IMVI melanoma; OVCAR-4 ovarian; HL-60(TB) leukemia; EKVX NSCLC; UACC-62 melanoma; RPMI-8226 leukemia.
Holding throughout (test): inhibition of tumour cell growth, NCI panel, 48 h

Data on eleven molecules can be found in PubChem BioAssay (NCI).

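Five concentrations, 48 hours, 96-well plates. The concentration for 50% growth inhibition is given as GI50. TGI: total growth inhibition.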

Regarding `CC(C)c1cc(C(C)C)c(B(c2ccccc2)c2ccccc2)c(C(C)C)c1Br`, the TGI in the test with CCRF-CEM leukemia, with NCI-H23 lung, in the test on PC-3 prostate, in the test on HT29 colon, in the test with LOX IMVI melanoma and in the test on OVCAR-4 ovarian was over 100 µM throughout. Moreover, the TGI with HL-60(TB) leukemia, in the test on EKVX NSCLC and with UACC-62 melanoma was over 100 µM each time.

`N#CC(NNC(=O)c1c(Cl)c(Cl)c(Cl)c(Cl)c1-c1nc2ccc(C(=O)c3ccccc3)cc2[nH]1)c1cccc(Oc2ccccc2)c1` (stereo unspecified): the TGI with CCRF-CEM leukemia was 29 µM; in the test on NCI-H23 lung it was 90.9 µM; in the test with PC-3 prostate, 54 µM; in the test on HT29 colon, over 100 µM; with LOX IMVI melanoma, over 100 µM; in the test on OVCAR-4 ovarian, over 100 µM. Also, the TGI was found to be 91.8 µM with RPMI-8226 leukemia, 83.6 µM with HL-60(TB) leukemia and 37.6 µM in the test on EKVX NSCLC.

As to `CC1CC/C(=C\c2ccc(F)cc2)C2=C1C(c1ccc(F)cc1)NC(=S)N2` (stereo unspecified), the TGI with CCRF-CEM leukemia, in the test with NCI-H23 lung, in the test with PC-3 prostate, in the test on HT29 colon, in the test with LOX IMVI melanoma and with RPMI-8226 leukemia was over 100 µM in each case. For the same molecule, the results for the TGI in the test with HL-60(TB) leukemia, with EKVX NSCLC and in the test on UACC-62 melanoma were over 100 µM, 79.3 µM and over 100 µM, respectively.

Take `Nc1nn2cc(-c3ccccc3)[n+](CC(=O)c3ccccc3)c2s1`: the TGI was 54.6 µM in the test with CCRF-CEM leukemia; 51.6 µM with NCI-H23 lung; over 100 µM in the test on PC-3 prostate; over 100 µM in the test on HT29 colon; 35.4 µM in the test on LOX IMVI melanoma; 37.3 µM in the test on RPMI-8226 leukemia. Further, the TGI with HL-60(TB) leukemia, with EKVX NSCLC and in the test on UACC-62 melanoma was over 100 µM in each case.

Take `O=S1(=O)OCCOS(=O)(=O)C1S(=O)(=O)c1cccc2ccccc12`: the TGI in the test on CCRF-CEM leukemia, with NCI-H23 lung, with PC-3 prostate, in the test on HT29 colon, with LOX IMVI melanoma and in the test on OVCAR-4 ovarian was over 100 µM each time. The TGI in the test with RPMI-8226 leukemia, with HL-60(TB) leukemia and in the test on EKVX NSCLC was over 100 µM each time.

For the molecule `O=C(N(C1=CCCC1)N(c1ccccc1)c1ccccc1)C(F)(F)F`, the TGI with CCRF-CEM leukemia was 91.8 µM; in the test with NCI-H23 lung, over 100 µM; in the test on PC-3 prostate, over 100 µM; in the test with HT29 colon, 42.6 µM; with LOX IMVI melanoma, 31.5 µM; in the test with OVCAR-4 ovarian it was over 100 µM. In addition, the TGI in the test with HL-60(TB) leukemia was 46.8 µM; with EKVX NSCLC, 39.1 µM; with UACC-62 melanoma, over 100 µM.

As to `CC1C/C(=C\c2ccc(O)c(O)c2)C(=O)/C(=C/c2ccc(O)c(O)c2)C1` (stereo unspecified), the TGI in the test on CCRF-CEM leukemia came to 7.2 µM; with NCI-H23 lung, 12.9 µM; in the test on PC-3 prostate it was 29.9 µM; with HT29 colon, 34.2 µM; with LOX IMVI melanoma, 23.4 µM; in the test with OVCAR-4 ovarian it was 34.1 µM. For the same molecule, the figures for the TGI with HL-60(TB) leukemia, in the test on EKVX NSCLC and with UACC-62 melanoma were 8.42 µM, 30.1 µM and 13.6 µM, respectively.

Consider `O=C(c1cccs1)N(C(=O)N1CCCCC1)c1ccccc1`, for which the TGI with CCRF-CEM leukemia, in the test on NCI-H23 lung, in the test on PC-3 prostate, with HT29 colon, with LOX IMVI melanoma and in the test on RPMI-8226 leukemia was over 100 µM throughout. Besides, the TGI with HL-60(TB) leukemia, in the test with EKVX NSCLC and in the test on UACC-62 melanoma was over 100 µM in each case.

`COc1ccc(-c2nc3ncccn3c2-c2ccc(S(C)(=O)=O)cc2)cc1`: the TGI in the test with CCRF-CEM leukemia, in the test with NCI-H23 lung, in the test with PC-3 prostate, in the test on HT29 colon, in the test with LOX IMVI melanoma and in the test on OVCAR-4 ovarian was over 100 µM throughout. Moreover, the TGI in the test on RPMI-8226 leukemia, in the test on HL-60(TB) leukemia and with UACC-62 melanoma was over 100 µM in each case.

With `COc1ccc(Nc2ccnc3cc(Cl)ccc23)cc1CN(CCCl)CCCl`, the GI50 with CCRF-CEM leukemia was 0.664 µM; in the test with NCI-H23 lung, 1.04 µM; in the test with PC-3 prostate, 2.05 µM; with HT29 colon, 1.62 µM; in the test with LOX IMVI melanoma it was 0.724 µM; with OVCAR-4 ovarian, 1.74 µM. In addition, the GI50 in the test with RPMI-8226 leukemia was 1.15 µM; in the test with HL-60(TB) leukemia, 0.944 µM; in the test with EKVX NSCLC it was 1.9 µM. Besides, the TGI was 3.26 µM in the test with NCI-H23 lung; over 100 µM in the test with PC-3 prostate; 6.42 µM in the test on HT29 colon; 4.39 µM in the test on LOX IMVI melanoma; 5.19 µM in the test on OVCAR-4 ovarian; 4.85 µM in the test with RPMI-8226 leukemia. For the same molecule, the TGI with HL-60(TB) leukemia was 3.96 µM; in the test on EKVX NSCLC it was over 21.5 µM.

As for `COc1ccc(C(OCC2OC(n3ccc(Oc4c(F)c(F)c(F)c(F)c4F)nc3=O)CC2OP(OCCC#N)N(C(C)C)C(C)C)(c2ccccc2)c2ccc(OC)cc2)cc1` (stereo unspecified), the TGI in the test on CCRF-CEM leukemia, in the test on NCI-H23 lung, in the test with PC-3 prostate, in the test on HT29 colon, in the test with LOX IMVI melanoma and in the test with RPMI-8226 leukemia was over 100 µM each time. Further, the TGI with HL-60(TB) leukemia and in the test on UACC-62 melanoma was over 100 µM each time.
